Test results published in PMC8229775, “β-Thujaplicin Enhances TRAIL-Induced Apoptosis via the Dual Effects of XIAP Inhibition and Degradation in NCI-H460 Human Lung Cancer Cells” (Medicines, 2021).

Target: T1, X-linked inhibitor of apoptosis protein (XIAP) (Homo sapiens, UniProt P98170)
T1 construct: GST-tagged XIAP-BIR3 domain
Assay: fluorescence polarization displacement of 5-FAM Smac/Diablo peptide from recombinant BIR3
Assay type: binding

T1 sequence (P98170 241-356 limits assumed): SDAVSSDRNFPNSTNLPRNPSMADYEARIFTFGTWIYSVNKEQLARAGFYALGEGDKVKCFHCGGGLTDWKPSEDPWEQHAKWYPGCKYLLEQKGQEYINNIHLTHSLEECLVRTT

Row | SMILES | IC50 [µM]
1 | CC(C)c1ccc(O)c(=O)cc1 [γ-thujaplicin] | 56.2 ± 2.9
2 | CCCCCCCCCCCC1=C(O)C(=O)C=C(O)C1=O [Embelin] | 3.1 ± 0.6
3 | O=c1cccccc1O [Tropolone] | 83.1 ± 6.9
4 | CC(C)c1cccc(=O)c(O)c1 [β-thujaplicin] | 58.5 ± 2.8
